The values below come from ChEMBL document CHEMBL1201862, “PubChem BioAssay data set” (2004).

Some test systems named below: OVCAR-4; HOP-92; LOX IMVI; NCI-H522; A498; M14; SW-620; U-251; KM12; RXF 393; SK-MEL-2; HCC 2998; 786-0; EKVX; SNB-19; HOP-62; SF-295; SR.
Holding throughout (assay): growth of human tumour cells (NCI), 48 h

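In this assay, cells in 96-well plates receive the compound at five concentrations for 48 hours. Endpoints are linearly interpolated between the surrounding concentrations. The concentration for 50% growth inhibition is given as GI50.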 Activity calls are given as the source filed them. Rule as the data show it: active = GI50 up to about 1.1 µM and inactive = higher.

Turning to `CC1(C)NC(=O)N(CCCCCCN2C(=O)NC(C)(C)C2=O)C1=O`, the GI50 in the assay with OVCAR-4, in the assay on HOP-92, with LOX IMVI, in the assay on NCI-H522, in the assay with A498 and in the assay with M14 was > 100 µM (inactive) in each case. The GI50 with SW-620, with U-251, in the assay with KM12, with RXF 393, in the assay on SK-MEL-2 and with HCC 2998 was > 100 µM (inactive) in each case. In addition, the GI50 is > 100 µM (inactive) in the assay with 786-0, > 100 µM (inactive) in the assay with EKVX and 97.9 µM (inactive) in the assay with SNB-19.

As for `Clc1ccc2c(c1)C1C(CO2)C(c2ccccc2)=NN1c1ccccc1` (stereo not drawn), the GI50 with HOP-92 was 18.6 µM (inactive); with LOX IMVI it was > 10 µM (inactive); with A498, > 100 µM (inactive); in the assay with SW-620 it was 39.7 µM (inactive); with U-251, 34.8 µM (inactive); in the assay with KM12, 31.6 µM (inactive). Besides, the GI50 is 37 µM (inactive) in the assay on HOP-62; 24.2 µM (inactive) in the assay with RXF 393; 26.9 µM (inactive) in the assay with SK-MEL-2; 43.8 µM (inactive) in the assay on HCC 2998; 24.9 µM (inactive) in the assay with 786-0; 35.6 µM (inactive) in the assay on SF-295. Also, the figures for the GI50 with EKVX and with SNB-19 were 11.8 µM (inactive) and 34.5 µM (inactive), respectively.

`O=[N+]([O-])c1cc(Cl)ccc1S(=O)(=O)c1ccc(Cl)cc1[N+](=O)[O-]`: the GI50 is 17.9 µM (inactive) with OVCAR-4; 18.5 µM (inactive) in the assay on HOP-92; 16.1 µM (inactive) with LOX IMVI; 16.1 µM (inactive) in the assay with NCI-H522; 16.7 µM (inactive) in the assay with M14; 18.5 µM (inactive) with SW-620. The GI50 in the assay on U-251 was 19.8 µM (inactive); with KM12 it was 14.2 µM (inactive); in the assay on HOP-62, 21.3 µM (inactive); in the assay with RXF 393, 15.1 µM (inactive); in the assay with SK-MEL-2, 18 µM (inactive); with SR, 4.19 µM (inactive). The values for the GI50 in the assay with 786-0, in the assay with SF-295 and in the assay with SNB-19 were 15.5 µM (inactive), 15.1 µM (inactive) and 17.4 µM (inactive), respectively.

For `CCCCCCCCCCCCCCCC(=O)OCC1OC(n2cc(F)c(=O)[nH]c2=O)C(NC(=O)OCc2ccccc2)C(O)C1O` (stereo not drawn), the GI50 in the assay on OVCAR-4 is 20 µM (inactive); in the assay with HOP-92 it was 15.9 µM (inactive); in the assay on LOX IMVI, 17.1 µM (inactive); in the assay on A498 it was 18.8 µM (inactive); in the assay with M14, 17 µM (inactive); with SW-620 it was 26.9 µM (inactive). Further, the GI50 in the assay on U-251 is 15.9 µM (inactive); in the assay on KM12 it was 20.8 µM (inactive); in the assay on SK-MEL-2 it was 16 µM (inactive); in the assay with HCC 2998, 16.3 µM (inactive); with 786-0 it was 18.7 µM (inactive); in the assay with SF-295, 16.9 µM (inactive). Besides, the values for the GI50 in the assay with EKVX and in the assay on SNB-19 were 22 µM (inactive) and 16.8 µM (inactive), respectively.

For `C=C1C2C[C@@H]3OC4CC5O[C@]6(CC5OC4C(C)C3OC(=O)CC3CC[C@@H]4OC5C7OC8C[C@](CCC9CC(=C)[C@H](CCC(C[C@H]1C)O2)O9)(OC7C4O3)O[C@@H]85)C[C@@H]1O[C@@]2(CC(C)[C@@H]3OC(CC(=O)CCO)C(O)C[C@@H]3O2)CC(C)[C@@H]1O6` (stereo partly drawn), the GI50 in the assay on OVCAR-4, in the assay with HOP-92, in the assay with LOX IMVI, with NCI-H522, in the assay on M14 and in the assay on SW-620 was < 0.001 µM (active) in each case. In addition, the GI50 in the assay on U-251, with KM12, in the assay on HOP-62, in the assay with SK-MEL-2, in the assay on HCC 2998 and with SR was < 0.001 µM (active) each time. For the same compound, the GI50 in the assay with 786-0, in the assay with SF-295 and in the assay with SNB-19 was < 0.001 µM (active) throughout.

Regarding `COc1ccc(/C=C/CO)cc1OC`, the GI50 with HOP-92 is 56.8 µM (inactive); in the assay with SW-620, > 100 µM (inactive); in the assay with U-251, > 100 µM (inactive); with KM12 it was > 100 µM (inactive); with RXF 393 it was > 100 µM (inactive); in the assay on SK-MEL-2, > 100 µM (inactive). Also, the GI50 in the assay with HCC 2998, in the assay on SR, in the assay with 786-0, in the assay with SF-295, in the assay with EKVX and with SNB-19 was > 100 µM (inactive) in each case.

Regarding `C=CCCC(O)c1cc(C)c(O)c(C)c1` (stereo not drawn), the GI50 in the assay on LOX IMVI, with NCI-H522, in the assay on A498, in the assay on M14, with SW-620 and with U-251 was > 100 µM (inactive) each time. Also, the GI50 with KM12 is > 100 µM (inactive); in the assay with HOP-62, > 100 µM (inactive); in the assay with RXF 393 it was 53.3 µM (inactive); in the assay on SK-MEL-2, > 100 µM (inactive); in the assay on HCC 2998 it was > 100 µM (inactive); in the assay on 786-0 it was > 100 µM (inactive). Moreover, the GI50 in the assay with SF-295, in the assay with EKVX and in the assay on SNB-19 was > 100 µM (inactive) each time.

`O=C1CCC(O)=C1O`: the GI50 in the assay with OVCAR-4, in the assay on HOP-92, with LOX IMVI, in the assay with NCI-H522, with A498 and with M14 was > 100 µM (inactive) in each case. The GI50 in the assay with SW-620, in the assay with U-251, with KM12, in the assay on HOP-62, with RXF 393 and in the assay on SK-MEL-2 was > 100 µM (inactive) throughout. Also, the GI50 in the assay with HCC 2998, in the assay with 786-0, in the assay on SF-295, in the assay with EKVX and in the assay with SNB-19 was > 100 µM (inactive) each time.

For `O=c1/c(=C/c2ccc3c(c2)OCO3)sc2nnc(-c3ccco3)n12`, the GI50 in the assay with OVCAR-4, in the assay on LOX IMVI, in the assay with NCI-H522, in the assay with A498, in the assay on M14 and in the assay with SW-620 was > 100 µM (inactive) each time. The GI50 in the assay with U-251, with KM12, with HOP-62, with RXF 393, in the assay on SK-MEL-2 and in the assay with HCC 2998 was > 100 µM (inactive) in each case. Further, the GI50 was > 100 µM (inactive) in the assay on 786-0, 82 µM (inactive) in the assay with SF-295, > 100 µM (inactive) with EKVX and > 100 µM (inactive) in the assay with SNB-19.
